Results from patent US20260015341A1, “PI3K INHIBITOR, PREPARATION METHOD THEREFOR, AND USE THEREOF” (HINOVA PHARMACEUTICALS INC., priority 2022, published 2026).

Key:
Pharmacokinetics in rats = type: in vivo, SD rats; conditions: rat; for AUC / half-life / clearance / Vd: male, SD, plasma; for Vd: read-out: VSS
Procedure: Experimental Example 4: The Pharmacokinetics of the Compound According to the Present Invention in Rats
(§1) 9 healthy adult male SD rats (three for each administration route of each compound) were fasted overnight (>12 h) before gavage, with free access to water; 4 hours after administration, rats could take food, and were administered via tail vein injection and gastric lavage, respectively. At different time points, intravenous blood sample was collected and anti-coagulated, wherein the anticoagulant was EDTA-K2 (the sample was placed in an ice bath after blood collection). The plasma was separated by centrifugation at 4° C. and 6000 g for 5 min, and stored at −70° C. for testing. The plasma concentration of compounds was determined by LC-MS/MS method.
(§2) The plasma concentration of compound at all time points was used to calculate the main pharmacokinetic parameters with Winnolin 8.3 non-compartmental model.
(§3) The area under the concentration-time curve AUCall value: calculated using the trapezoidal method; AUCinf=AUCall+Ct/ke, Ct is the plasma concentration at the last measurable time point, and ke is the elimination rate constant;
The elimination half life t1/2=0.693/ke;
(§4) The clearance rate CL=D/AUCinf (D is the administration dosage);
The volume of distribution at steady state Vss=CL×MRT, The mean retention time MRT=AUMC/AUC;

MCF-10A cells = assay: Inhibitory effects on the proliferation of MCF-10A cells (CCK8); type: cell-based; conditions: Homo sapiens, 144 h, 6 days
Procedure: Experimental Example 2: Experiment of Inhibitory Effects on the Proliferation of MCF-10A Cells
MCF-10A cells (Cobioer Bio. #CBP60419MCF) were diluted with complete medium (Cobioer Bio. #CBP60419), seeded in 96-well plate (Corning #3599) at 500 cells/well, and then cultured for 24 h. Then, gradiently diluted compounds were added (starting at a final concentration of 10 μM, 3-fold dilution, 9 dose concentrations), and the final volume was adjusted to 100 μL/well. The plate was incubated at 37° C. under 5% CO2 for 6 days. After the cultivation was completed, CCK8 reagent (Signalway Antibody Bio. #CP002) was added at 10 μL/well, and then the plate was further incubated at 37° C. under 5% CO2 for 2-3 hours. The OD450 nm value was obtained by a microplate reader.
The results are shown in the MCF-OA IC50 column in Table 2.

[1] = Pharmacokinetics in beagle dogs; type: in vivo; conditions: beagle dog
Procedure: Experimental Example 5: The Pharmacokinetics of the Compound According to the Present Invention in Beagle Dogs
as §1, with “beagle dogs” for “SD rats”, “forelimb venous” for “intravenous”, “3200” for “4° C. and 6000”, “10” for “5”
as §2, §3, §4
The volume of distribution at steady state Vss=CL×MRT. The mean retention time MRT=AUMC/AUC;

T47D cells = assay: Inhibitory effects on the proliferation of T47D cells (CellTiter-Glo); type: cell-based; conditions: Homo sapiens, 168 h, 7 days
Procedure: Experimental Example 3: Experiment of Inhibitory Effects on the Proliferation of T47D Cells
T47D cells (ATCC. #HTB-133) were diluted with RPMI 1640 (Gibco #22400-089) containing 10% FBS (Hyclone #SH30084.03), seeded in 96-well plate (Biosharp #BS-MP-96W) at 1000 cells/well, and then cultured for 24 h. Then, gradiently diluted compounds were added (starting at a final concentration of 10 μM, 3-fold dilution, 9 dose concentrations), and the final volume was adjusted to 150 μL/well. The plate was incubated at 37° C. under […] for 7 days. After the cultivation was completed, CellTiter-Glo reagent (Promega #G7573) was added at 75 μL/well, and then the plate was further incubated at 25° C. for 10 min. After that, the chemiluminescence value was read using an instrument.
The results are shown in the T47D IC50 column in Table 2.

[2] = iv (tail vein injection), 1 mg/kg
[3] = male, plasma, po, ig (intragastric), 3 mg/kg
[4] = male, plasma, po, ig (intragastric), 10 mg/kg

| Structure (SMILES) | AUC (Pharmacokinetics in rats; po, ig (intragastric), 3 mg/kg) [ng·h/mL] | half-life (Pharmacokinetics in rats; po, ig (intragastric), 3 mg/kg) [h] | AUC (Pharmacokinetics in rats; [2]) [ng·h/mL] | clearance (Pharmacokinetics in rats; [2]) [mL/min/kg] | half-life (Pharmacokinetics in rats; [2]) [h] | Vd (Pharmacokinetics in rats; [2]) [L/kg] | F (Pharmacokinetics in rats; ig (intragastric), 3 mg/kg) [%] | IC50 (MCF-10A cells) [µM] | F ([1]; ig (intragastric), 3 mg/kg) [%] | F ([1]; ig (intragastric), 10 mg/kg) [%] | AUC [1, 3] [ng·h/mL] | half-life [1, 3] [h] | AUC [1, 4] [ng·h/mL] | half-life [1, 4] [h] | AUC ([1]; male, plasma, iv, 1 mg/kg) [ng·h/mL] | clearance ([1]; male, plasma, iv, 1 mg/kg) [mL/min/kg] | half-life ([1]; male, plasma, iv, 1 mg/kg) [h] | Vd ([1]; male, plasma, iv, 1 mg/kg, read-out: VSS) [L/kg] | IC50 (T47D cells) [µM] |
| --- | --- | --- | --- | --- | --- | --- | --- | --- | --- | --- | --- | --- | --- | --- | --- | --- | --- | --- | --- |
| Cc1cc([C@@H](C)Nc2ccc(Cl)nc2C(=O)O)c2nc(-c3ccc(F)cc3)n(C)c(=O)c2c1 [Compound 65] | 3430 | 1.34 | 1000 | 16.3 | 2.95 | 1.71 | 79.6 | > 5 | 27.1 | 24.9 | 760 | 2.13 | 2370 | 4.19 | 954 | 17.4 | 2.1 | 0.828 | < 1 |
| Cc1cc([C@@H](C)Nc2ccc(Cl)nc2C(=O)O)c2nc(-c3ccccc3)n(C)c(=O)c2c1 [Compound 115] | 2360 | 3.83 | 978 | 17.5 | 3.79 | 2.14 | 80.3 | > 5 |  |  |  |  |  |  |  |  |  |  | > 5 |
